Among the test systems are MOLT-4; NCI-H522; COLO 205; HCT-15; U-251; NCI-H23; SF-295; SW-620; KM12; A498; OVCAR-8; SNB-19; HCC 2998; SK-MEL-28; CCRF-CEM; SNB-75; RPMI-8226; SK-MEL-2; Malme-3M; OVCAR-5.
Common to all, as to assay: growth of human tumour cells (NCI), 48 h

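Compound exposure: 48 hours, 5 concentrations, 96-well plates. Here, GI50 denotes the concentration required for 50% inhibition of growth.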 Active and inactive are the calls of the source. Rule as the data show it: active = GI50 up to about 1.1 µM and inactive = higher.

For the molecule `CCOC(=O)C1(C(=O)OCC)CSC1`, the GI50 with MOLT-4 is > 100 µM (inactive); in the test with NCI-H522 it was > 100 µM (inactive); in the test on COLO 205 it was > 100 µM (inactive); in the test on HCT-15, greater than 100 µM; with U-251 it was > 100 µM (inactive); with NCI-H23, > 100 µM (inactive). The GI50 in the test on SF-295 was > 100 µM (inactive); in the test with SW-620, > 100 µM (inactive); with KM12 it was > 100 µM (inactive); with A498 it was 42 µM (inactive); in the test with OVCAR-8, > 100 µM (inactive); in the test on SNB-19, > 100 µM (inactive). Moreover, the GI50 is 0.192 µM (active) with HCC 2998, > 100 µM (inactive) in the test on SK-MEL-28, > 100 µM (inactive) with CCRF-CEM and > 100 µM (inactive) in the test on SNB-75.

For the molecule `CNC(=O)SCC(NC(=O)CCC(N)C(=O)O)C(=O)NCC(=O)O` (stereo not given), the GI50 in the test on MOLT-4 is 60.8 µM (inactive); with NCI-H522 it was > 86.5 µM (inactive); in the test with RPMI-8226, 42.3 µM (inactive); in the test with COLO 205, 51.2 µM (inactive); in the test on HCT-15, greater than 78 µM; in the test with U-251, > 86.7 µM (inactive). Also, the GI50 in the test with NCI-H23, in the test on SF-295, with SW-620, in the test on KM12, with A498 and in the test with OVCAR-8 was > 100 µM (inactive) each time. The GI50 in the test with SNB-19 is > 100 µM (inactive); in the test on SK-MEL-2 it was > 85.7 µM (inactive); in the test on HCC 2998, > 100 µM (inactive); in the test on Malme-3M it was > 65.5 µM (inactive); with SK-MEL-28, > 100 µM (inactive); in the test on CCRF-CEM, > 50 µM (inactive). For the same molecule, the GI50 with SNB-75 and in the test with OVCAR-5 was > 100 µM (inactive) each time.

For the molecule `O=C1c2ccccc2C(=O)N1CC(CN1C(=O)c2ccccc2C1=O)(C(=O)OCc1ccccc1)C(=O)OCc1ccccc1`, the GI50 was 7.36 µM (inactive) in the test on MOLT-4; > 100 µM (inactive) in the test on NCI-H522; > 100 µM (inactive) with RPMI-8226; > 100 µM (inactive) in the test with COLO 205; greater than 100 µM in the test on HCT-15; > 100 µM (inactive) in the test with U-251. In addition, the GI50 with NCI-H23, in the test with SF-295, with KM12, in the test on A498, in the test with OVCAR-8 and in the test on SNB-19 was > 100 µM (inactive) throughout. Besides, the GI50 is > 100 µM (inactive) with SK-MEL-2; > 100 µM (inactive) in the test on HCC 2998; > 100 µM (inactive) in the test with Malme-3M; > 100 µM (inactive) in the test with SK-MEL-28; 6.11 µM (inactive) in the test on CCRF-CEM; > 100 µM (inactive) in the test with SNB-75. In addition, in the test with OVCAR-5, the GI50 is > 100 µM (inactive).

`FC(F)(F)C1=NC(=NNc2nnc(-c3ccccc3)c(-c3ccccc3)n2)N=C(C(F)(F)F)C1`: the GI50 was 5.51 µM (inactive) with MOLT-4; 9.51 µM (inactive) in the test on NCI-H522; 12.2 µM (inactive) in the test with RPMI-8226; 6.08 µM (inactive) with COLO 205; 11 µM in the test on HCT-15; > 29 µM (inactive) in the test with U-251. Besides, the GI50 was 19.5 µM (inactive) in the test with NCI-H23; 8.2 µM (inactive) in the test with SF-295; 27.3 µM (inactive) with SW-620; 33.2 µM (inactive) in the test on KM12; 11.6 µM (inactive) with A498; 25.8 µM (inactive) in the test on OVCAR-8. For the same molecule, the GI50 was 35 µM (inactive) with SNB-19; 24.5 µM (inactive) in the test on SK-MEL-2; 9.12 µM (inactive) in the test with HCC 2998; > 100 µM (inactive) in the test with Malme-3M; 35.8 µM (inactive) in the test with SK-MEL-28; 7.29 µM (inactive) in the test on CCRF-CEM. In addition, the GI50 in the test on SNB-75 was 25.7 µM (inactive); with OVCAR-5, 30.2 µM (inactive).

Consider `NC(=O)Nc1ccc(C(=O)NCCCNC(=O)c2ccc(NC(N)=O)cc2)cc1`, for which the GI50 in the test with MOLT-4 was > 100 µM (inactive); in the test on NCI-H522, > 100 µM (inactive); in the test with RPMI-8226, > 100 µM (inactive); with COLO 205, > 100 µM (inactive); in the test on HCT-15, greater than 100 µM; in the test with U-251 it was > 100 µM (inactive). Also, the GI50 with NCI-H23, in the test with SW-620, with KM12, in the test on A498, in the test on OVCAR-8 and in the test with SNB-19 was > 100 µM (inactive) throughout. Besides, the GI50 with SK-MEL-2, in the test on HCC 2998, in the test with Malme-3M, in the test on SK-MEL-28, with CCRF-CEM and with SNB-75 was > 100 µM (inactive) each time. Moreover, the GI50 in the test on OVCAR-5 is > 100 µM (inactive).

For `ICC1CCCO1` (stereo not given), the GI50 in the test on MOLT-4 is > 100 µM (inactive); in the test on RPMI-8226, > 100 µM (inactive); in the test on COLO 205 it was > 100 µM (inactive); with HCT-15, greater than 100 µM; in the test with U-251 it was > 100 µM (inactive); with NCI-H23, > 100 µM (inactive). For the same molecule, the GI50 with SF-295, in the test on SW-620, with KM12, in the test with A498, in the test with OVCAR-8 and in the test with SNB-19 was > 100 µM (inactive) each time. Further, the GI50 in the test with SK-MEL-2, in the test with HCC 2998, in the test with Malme-3M, in the test on SK-MEL-28, in the test on CCRF-CEM and in the test on SNB-75 was > 100 µM (inactive) throughout. Besides, in the test on OVCAR-5, the GI50 was > 100 µM (inactive).

Turning to `CC(C)C1OC(=O)/C=C/C=C/C=C/C=C/C=C/CC(O)C(C)C(O)CC(O)CC(O)CC(O)CC(O)CC(O)CC(O)/C=C/C1C` (stereo not given), the GI50 was > 100 µM (inactive) with MOLT-4; > 100 µM (inactive) in the test on NCI-H522; > 100 µM (inactive) with RPMI-8226; greater than 100 µM in the test with HCT-15; > 100 µM (inactive) with U-251; > 100 µM (inactive) with NCI-H23. For the same molecule, the GI50 in the test on SF-295, in the test on SW-620, in the test with KM12, in the test with A498, in the test on OVCAR-8 and in the test with SNB-19 was > 100 µM (inactive) throughout. Moreover, the GI50 with SK-MEL-2 was > 100 µM (inactive); with HCC 2998, > 100 µM (inactive); with Malme-3M it was 70.5 µM (inactive); in the test with SK-MEL-28 it was > 100 µM (inactive); in the test on CCRF-CEM it was > 100 µM (inactive); in the test on SNB-75 it was > 100 µM (inactive). Moreover, the GI50 in the test with OVCAR-5 is > 100 µM (inactive).

As for `O=C1C=C(N2CC2)C(=O)C=C1N1CC1`, the GI50 was 0.0344 µM (active) with MOLT-4; 0.0652 µM (active) in the test on NCI-H522; 0.227 µM (active) in the test with RPMI-8226; 0.0984 µM (active) with COLO 205; 0.102 µM in the test with HCT-15; 0.229 µM (active) in the test with U-251. The GI50 in the test with NCI-H23 was 0.0904 µM (active); with SF-295, 0.155 µM (active); in the test with SW-620, 0.0891 µM (active); in the test with KM12, 0.824 µM (active); in the test on A498 it was 0.0318 µM (active); in the test on SNB-19, 0.904 µM (active). Besides, the GI50 is 0.12 µM (active) in the test on SK-MEL-2; 0.307 µM (active) with HCC 2998; 0.107 µM (active) in the test on Malme-3M; 0.29 µM (active) with SK-MEL-28; 0.0291 µM (active) in the test on CCRF-CEM; 0.385 µM (active) in the test with SNB-75. Further, the GI50 in the test with OVCAR-5 was 0.646 µM (active).

Regarding `CCNC(=O)N(CC)CN(CC)C(=O)NCC`, the GI50 with MOLT-4 was > 100 µM (inactive); with NCI-H522, > 100 µM (inactive); in the test with RPMI-8226 it was > 100 µM (inactive); in the test with COLO 205, > 100 µM (inactive); in the test with HCT-15 it was greater than 100 µM; in the test on SF-295, > 100 µM (inactive). The GI50 in the test on SW-620, in the test on KM12, in the test with A498, in the test on OVCAR-8, with SNB-19 and in the test with SK-MEL-2 was > 100 µM (inactive) throughout. In addition, the GI50 in the test on HCC 2998, in the test on Malme-3M, with SK-MEL-28, with CCRF-CEM, in the test with SNB-75 and with OVCAR-5 was > 100 µM (inactive) each time.

For the molecule `CCCNC1=NC(C)=CSC(Nc2ccccc2)=C1C#N`, the GI50 was > 100 µM (inactive) in the test on MOLT-4; > 100 µM (inactive) in the test with NCI-H522; > 100 µM (inactive) in the test on RPMI-8226; > 100 µM (inactive) in the test on COLO 205; greater than 100 µM in the test with HCT-15; > 100 µM (inactive) in the test with U-251. Moreover, the GI50 in the test on NCI-H23, in the test on SF-295, in the test with SW-620, with KM12, in the test on A498 and in the test with OVCAR-8 was > 100 µM (inactive) each time. In addition, the GI50 in the test with SNB-19, in the test on SK-MEL-2, with Malme-3M, with SK-MEL-28 and in the test with OVCAR-5 was > 100 µM (inactive) throughout.

Regarding `C=CCN1C(=O)/C(=C/c2cccs2)N=C1SC1OC(COC(=O)c2ccccc2)C(OC(=O)c2ccccc2)C1OC(=O)c1ccccc1` (stereo not given), the GI50 in the test with MOLT-4 was > 100 µM (inactive); in the test with NCI-H522, 11.4 µM (inactive); with RPMI-8226 it was 22.4 µM (inactive); in the test with COLO 205 it was > 100 µM (inactive); with HCT-15 it was greater than 100 µM; in the test on U-251 it was > 100 µM (inactive). In addition, the GI50 in the test with NCI-H23, in the test with SF-295, with SW-620, in the test on KM12, with A498 and with OVCAR-8 was > 100 µM (inactive) each time. In addition, the GI50 in the test with SK-MEL-2 was > 100 µM (inactive); in the test with HCC 2998 it was > 100 µM (inactive); with Malme-3M, > 100 µM (inactive); with SK-MEL-28, > 100 µM (inactive); in the test with CCRF-CEM it was 53.5 µM (inactive); with SNB-75, > 100 µM (inactive). For the same molecule, the GI50 in the test with OVCAR-5 is > 100 µM (inactive).

Values taken from ChEMBL document CHEMBL1201862, “PubChem BioAssay data set” (2004).
